Counter-ions that a name gives are not always drawn. Like-named read-outs stand apart in the source and are kept apart here.
What was measured:
[1] = target: T1, dopamine D-1 receptor (Rattus norvegicus, UniProt P18901); assay: Competitive inhibition assay, displacement of 3H-SCH 23390 (D-1 receptor binding); parameters: species or system rat (male Sprague-Dawley, striatal tissue)
T1 construct: Striatal tissue was excised, pooled, and homogenized; from tissue; host or cells: rat striatum, washed membrane pellet (male Sprague-Dawley rats, Charles River)
T1 sequence (P18901 whole entry): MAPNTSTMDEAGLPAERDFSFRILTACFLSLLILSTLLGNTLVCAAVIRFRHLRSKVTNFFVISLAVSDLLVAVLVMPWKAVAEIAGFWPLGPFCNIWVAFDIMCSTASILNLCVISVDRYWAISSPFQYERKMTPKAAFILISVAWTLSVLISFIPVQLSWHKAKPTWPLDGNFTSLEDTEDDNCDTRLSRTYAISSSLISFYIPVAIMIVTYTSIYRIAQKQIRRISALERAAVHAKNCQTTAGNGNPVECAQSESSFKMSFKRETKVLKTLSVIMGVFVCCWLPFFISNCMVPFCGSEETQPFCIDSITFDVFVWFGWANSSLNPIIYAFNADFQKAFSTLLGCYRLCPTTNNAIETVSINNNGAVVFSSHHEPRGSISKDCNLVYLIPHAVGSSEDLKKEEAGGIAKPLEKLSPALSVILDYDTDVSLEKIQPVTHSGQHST
From the text: (§1) Many compounds capable of effecting reproducible physiological changes in neural tissues are believed to operate by binding at one or more receptor sites.
(§2) A methodology for characterization of D-1 and D-2 receptor binding and an interpretation of the data are described by Billard et al., Life Sciences 35, 1885 (1984) in which the binding of the benzazepine (R)-(+)-8-chloro-2,3,4,5-tetrahydro-3-methyl-5-phenyl-1H- 3-benzazepin-7-ol hemimaleate (SCH 23390) to the dopamine D-1 receptor is characterized. A selectivity for D-1 receptor binding as compared to D-2 receptor binding is believed to confer the therapeutic advantage of avoiding troublesome and potentially irreversible neurological side effects associated with D-2 receptor occupancy.
(§3) Tritiated SCH 23390 and tritiated spiperone (a potent D-2 receptor ligand) were obtained as described in the Billard et al. reference supra and serially diluted in 0.05M Tris buffer, pH 7.4, as required. Compounds of this invention were synthesized as disclosed herein and diluted in 0.05M Tris buffer, pH 7.4, as required.
(§4) Male Sprague-Dawley rats (200 to 250 g) from Charles River Breeding Laboratories, Mass. were used to obtain brain tissue. The rats were humanely sacrificed and their brains removed and placed on ice. Striatal tissue was excised, pooled, and homogenized (Brinkman Polytron, 10 sec) in 100 volumes (w/v) of ice cold 50 mM Tris buffer, pH 7.4 (at 25° C.). The homogenate was centrifuged at 20,000 xg for 10 min. The resultant pellet was rehomogenized in Tris buffer and centrifuged again. The final pellet was resuspended in 50 mM Tris buffer pH 7.4 containing 120 mM NaCl, 5 mM KCl, 2 mM CaCl2, and 1 mM MgCl2.
(§5) Polypropylene incubation tubes received 100 μl of the individual test compounds at various concentrations dissolved or suspended in 0.05M Tris, pH 7.4 containing 4 mg/ml methylcellulose, 100 μl of a solution of ^3 H-SCH 23390 in Tris buffer (final reaction mixture concentration=0.3 nM) or 100 μl of a solution of ^3 H-spiperone in Tris buffer (final concentration=0.2 nM) and 800 μl of tissue suspension (ca. 3 mg/assay). Tubes were incubated at 37° C. for 15 minutes and rapidly vacuum filtered through Whatman GF/B filters and rinsed 4 times with 4 ml of ice cold 50 mM Tris buffer, pH 7.4. The filters were transferred to scintillation vials, equilibated with 10 ml of scintillant (Scintosol, Isolab, Inc.) for 16 hours at 25° C. and the radioactivity determined in a liquid scintillation counter. Ki values were determined as described by Billard et al. using the relationship Ki = IC50 /(1+([L]/KD)) wherein IC50 =concentration of test drug necessary to displace 50% of specifically bound ^3 H-Sch 23390, [L]=concentration of radioligand used in the assay, and KD =dissociation constant.

[2] = target: T2, D-2 receptor (Rattus norvegicus, UniProt P61169); assay: Competitive inhibition assay, displacement of 3H-spiperone (D-2 receptor binding); parameters: species or system rat (male Sprague-Dawley, striatal tissue)
T2 construct: Striatal tissue was excised, pooled, and homogenized; from tissue; host or cells: rat striatum, washed membrane pellet (male Sprague-Dawley rats, Charles River)
T2 sequence (P61169 whole entry): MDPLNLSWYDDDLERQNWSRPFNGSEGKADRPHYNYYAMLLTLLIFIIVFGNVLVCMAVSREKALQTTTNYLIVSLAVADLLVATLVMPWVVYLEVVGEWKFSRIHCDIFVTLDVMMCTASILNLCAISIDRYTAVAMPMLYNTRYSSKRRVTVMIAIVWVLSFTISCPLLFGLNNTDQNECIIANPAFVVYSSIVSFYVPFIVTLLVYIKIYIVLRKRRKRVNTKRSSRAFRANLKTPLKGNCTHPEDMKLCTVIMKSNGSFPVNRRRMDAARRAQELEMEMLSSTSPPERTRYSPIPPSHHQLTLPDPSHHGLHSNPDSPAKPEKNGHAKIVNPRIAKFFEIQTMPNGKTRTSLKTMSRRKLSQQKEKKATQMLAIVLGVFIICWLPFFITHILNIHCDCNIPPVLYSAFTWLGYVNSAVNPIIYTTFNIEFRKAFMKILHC
From the text: as §1, §2, §3, §4, §5

[3] = Conditioned avoidance suppression (CAR) in rats; assay type: in vivo; conditions: lowest dose significantly (P≤0.05) reducing avoidance responding, rat, in mg/kg
Protocol: A series of experiments was carried out to assess the ability of the compounds of this invention to suppress the conditioned avoidance response (CAR) in rats.
Rats were required to jump onto a platform located 6.75 inches (17.15 cm) above the grid floor of an experimental chamber in response to a 5-second tone to avoid a 10-second foot shock (0.6 ma). Each experimental session consisted of 20 such trials presented at 30-second intervals. A correct CAR is scored whenever the rat jumps onto the platform during the tone (prior to foot shock). An escape response is scored when the rat jumps onto the platform during a shock. A response failure is defined as the lack of an escape response during the 10-second shock period.
Groups of 6-8 rats were trained in two consecutive days (total of 40 trials). Rats that reached criterion on day 2 (correct CARs on 16 or more of the 20 trials) were treated with either a test drug or vehicle on day 3. Suppression of CAR was analyzed statistically using Student's t-test comparing the performance of rats on day 2 with their performance following drug on day 3.

[4] = Squirrel monkey conditioned avoidance response (CAR) test; assay type: in vivo; conditions: for MEAN (±SE) NUMBER OF […] 6 HOURS POST-TREATMENT: 10 mg/kg p.o., vehicle 59.1 + 0.9 (N=7); for ability to significantly decrease the number of avoidances six hours after dosing (duration): 10 mg/kg po, six hours prior to testing; for ED50: Primates, po
From the text: This test was designed to measure the effective duration of candidate compounds.
Male or female squirrel monkeys weighing 800-1200 g housed one per cage were utilized. Initially each monkey was taught to terminate a 3 mA electric shock delivered through the grid floor of the test cage and an overlapping tone by depressing a lever in the cage.
In the second phase of the testing, a ten second tone is turned on prior to the shock component. A lever press during the sounding of the tone terminates the tone and prevents the occurrence of the shock component and is denoted as an "avoidance".
The compound testing was commenced after three consecutive days of re-testing. […] The monkey must achieve at least an 85% correct avoidance before drug testing commences. If this minimal avoidance level is achieved, the next day the monkey is orally dosed or injected with the subject compounds in the appropriate vehicle and the number of avoidances are recorded. An animal is defined as having been "affected" by any drug treatment if there is a 50% loss of avoidance behavior relative to the performance of the animal when only the vehicle was injected. The minimal effective dose (MED) is defined as that dose producing an effect in at least 50% of the animals.
A test was conducted to determine the effective duration of a compound of the present invention, 6,7,7a,8,9,13b-hexahydro-3-chloro-2-hydroxy-7-methyl-5H-benzo[ d]naphtho[2,1-b]azepine, denoted as Compound A, compared to a known compound, (d)-7-chloro-8-hydroxy-3-methyl-1-phenyl-2,3,4,5-tetrahydro-1h-3-benzazepine maleate, denoted as Compound B (Sch 23390)
The duration of each compound was determined by administering a 10 mg/kg po dose six hours prior to testing.

[5] = rat striatum, 3H-spiperone 0.2 nM, pH 7.4, 37° C., 15 min, read-out: Ki, 3H-Spip
[6] = rat striatum, 3H-SCH 23390 0.3 nM, pH 7.4, 37° C., 15 min, read-out: Ki, 3H-23390

Structure (SMILES) | Ki [2, 5] [µM] | Ki [1, 6] [µM] | Ki [2] [µM] | CAR (MED) ([3]; po) | also measured
CN1CCc2cc(Cl)c(O)cc2[C@@H]2c3ccccc3C[C@H]21 (relative stereo) [CH2, 0, trans, Cl, OH, trans-5,6,7,7a,8,12b-Hexahydro-2-hydroxy-3-chloro-7-methyl-benz[d]indeno[2,1-b]azepine] | 2.6 | – | – | – | Ki [1]: 0.01 µM
COc1cc2c(cc1O)[C@H]1c3ccccc3CC[C@H]1N(C)CC2 (relative stereo) [CH2, 1, cis, CH3O, OH] | – | 6.45 | > 100 | – | –
COc1cc2c(cc1O)CCN(C)[C@H]1CCc3ccccc3[C@H]21 (relative stereo) [CH2, 1, trans, HO, CH3O, trans-6,7,7a,8,9,13b-Hexahydro-3-hydroxy-2-methoxy-7-methyl-5H-benzo[d]naphtho[2,1-b]azepine] | – | – | > 100 | – | –
CN1CCc2cc(Cl)c(O)cc2[C@H]2c3ccccc3CC[C@@H]21 [CH2, 1, 7b(R):7a(S)(-), Cl, OH, (-)-trans-6,7,7a,8,9,13b-Hexahydro-3-chloro-2-hydroxy-7-methyl-5H-benzo[b]naphtho[2,1-b]azepine] | – | – | – | 30 | –
COc1cc2c(cc1O)[C@H]1c3ccccc3CCC[C@@H]1N(C)CC2 (relative stereo) [CH2, 2, trans, CH3O, OH] | > 100 | 0.292 | – | – | CAR (MED) ([3]; sc): 10
COc1cc2c(cc1O)[C@H]1c3ccccc3CC[C@@H]1N(C)CC2 (relative stereo) [CH2, 1, trans, CH3O, OH, trans-6,7,7a,8,9,13b-Hexahydro-2-hydroxy-3-methoxy-7-methyl-5H-benzo[d]naphtho[2,1-b]azepine] | – | – | 2.5 | 30 | Ki [1]: 0.023 µM; CAR (MED) ([3]; sc): 0.3-1
COc1cc2c(cc1O)CCN(C)[C@H]1CCCc3ccccc3[C@H]21 (relative stereo) [CH2, 2, trans, HO, CH3O] | > 100 | 7.73 | – | – | CAR (MED) ([3]; sc): 10
CN1CCc2ccc(O)cc2[C@H]2c3ccccc3CC[C@@H]21 (relative stereo) [CH2, 1, trans, H, OH, trans-6,7,7a,8,9,13b-Hexahydro-2-hydroxy-7-methyl-5H-benzo[d]naphtho[2,1-b]azepine] | 3.5 | – | – | – | Ki [1]: 0.08 µM
CN1CCc2cc(Cl)c(N)cc2[C@H]2c3ccccc3CC[C@@H]21 (relative stereo) [CH2, 1, trans, Cl, NH2] | 4.17 | – | – | 3 | Ki [1]: 0.07 µM
Cc1cc2c(cc1O)[C@H]1c3ccccc3CC[C@@H]1N(C)CC2 (relative stereo) [CH2, 1, trans, CH3, OH, trans-6,7,7a,8,9,13b-hexahydro-2-hydroxy-3-methyl-7-methyl-5 H-benzo[d]naphtho[2,1-b]azepine] | – | 0.119 | 7.2 | – | –
CN1CCc2ccc(O)cc2[C@@H]2c3ccccc3OC[C@H]21 (relative stereo) [O, 1, trans, H, OH, trans-6,6a,7,8,9,13b-Hexahydro-7-methyl-[1]benzopyrano[4,3-a][3]benzazepin-12-ol] | – | 0.121 | – | – | –
CN1CCc2cc(Cl)c(O)cc2[C@@H](c2ccccc2)C1 [Compound B, (d)-7-chloro-8-hydroxy-3-methyl-1-phenyl-2,3,4,5-tetrahydro-1h-3-benzazepine maleate, reference compound] | – | – | – | – | MEAN (±SE) NUMBER OF […] 6 HOURS POST-TREATMENT [4]: 59.7 + 0.3; ability to significantly decrease the number of avoidances six hours after dosing (duration) [4]: inactive; ED50 ([4]; 0.5 h): 2.4 mg/kg
CN1CCc2cc(Cl)c(O)cc2[C@@H]2c3ccccc3CC[C@H]21 [CH2, 1, 7b(S):7a(R)(+), Cl, OH, (+)-trans-6,7,7a,8,9,13b-hexahydro-3-chloro-2-hydroxy-7-methyl-5H-benzo[d]naphtho[2,1-b]azepine] | – | – | – | > 30 | –
COc1cc2c(cc1O)CCN(C)[C@@H]1CCc3ccccc3[C@H]21 (relative stereo) [CH2, 1, cis, HO, CH3O] | – | – | > 100 | – | –
CN1CCc2cc(Cl)c(O)cc2[C@H]2c3ccccc3CC[C@@H]21 (relative stereo) [CH2, 1, trans, Cl, OH, trans-6,7,7a,8,9,13b-Hexahydro-3-chloro-2-hydroxy-7-methyl-5H-benzo[d]naphtho[2,1-b]azepine] | – | – | – | 30 | CAR (MED) ([3]; sc): 0.3
CN1CCc2cc(Cl)c(O)cc2C2c3ccccc3CCC21 (stereo not shown) [Compound A, 6,7,7a,8,9,13b-hexahydro-3-chloro-2-hydroxy-7-methyl-5H-benzo[d]naphtho[2,1-b]azepine] | – | – | – | – | MEAN (±SE) NUMBER OF […] 6 HOURS POST-TREATMENT [4]: 23.9 + 7.5; ability to significantly decrease the number of avoidances six hours after dosing (duration) [4]: significant decrease in the number of avoidances (≤0.05); ED50 ([4]; 1 h, administered 60 minutes prior to the test, read-out: ED50): ~1.6 mg/kg

Reference: patent publication US4973586A, “Fused benzazepines, compositions of, and medical use thereof” (Schering Corporation, priority 1988, dated 1990)
